Experimental data reported in article PMC11952493 (bioRxiv, 2025).
Where no end group is shown, it is not given here.

Biological target: T1, Recombinant Human FAPα (Homo sapiens, UniProt Q12884)
T1 sequence (Q12884 1-760): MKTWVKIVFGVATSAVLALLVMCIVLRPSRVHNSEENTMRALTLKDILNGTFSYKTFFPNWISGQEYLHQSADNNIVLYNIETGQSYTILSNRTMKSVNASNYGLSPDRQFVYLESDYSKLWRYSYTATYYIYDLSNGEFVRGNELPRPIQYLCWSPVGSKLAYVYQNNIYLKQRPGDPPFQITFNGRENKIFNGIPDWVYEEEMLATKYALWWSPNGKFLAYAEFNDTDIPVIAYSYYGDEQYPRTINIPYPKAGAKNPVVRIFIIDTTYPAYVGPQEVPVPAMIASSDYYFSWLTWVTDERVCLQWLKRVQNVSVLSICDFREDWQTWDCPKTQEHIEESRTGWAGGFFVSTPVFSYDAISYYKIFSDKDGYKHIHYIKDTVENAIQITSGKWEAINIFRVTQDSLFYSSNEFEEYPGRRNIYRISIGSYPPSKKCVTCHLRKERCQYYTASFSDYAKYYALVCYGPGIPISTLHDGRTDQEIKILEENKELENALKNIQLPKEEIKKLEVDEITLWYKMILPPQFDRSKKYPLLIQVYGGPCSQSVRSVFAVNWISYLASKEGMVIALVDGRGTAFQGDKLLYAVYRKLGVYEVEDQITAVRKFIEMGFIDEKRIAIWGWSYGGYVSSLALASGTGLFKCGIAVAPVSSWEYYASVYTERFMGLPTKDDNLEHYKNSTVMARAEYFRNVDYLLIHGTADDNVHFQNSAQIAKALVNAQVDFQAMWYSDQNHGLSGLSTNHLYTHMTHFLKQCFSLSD
Experiment: Fluorogenic substrate cleavage assay with FAPα
Assay type: biochemical
Details: 200 μM substrate, 37°C; 10 nM FAPα, 2 nM DPP4, 6 nM DPP9, 3-6 nM PREP

| Sequence | selectivity for FAPα over DPP4, DPP9 and PREP (in words) |
| --- | --- |
| AACSFRINSLCG (also: sidechain bridge or staple (positions not given here)) [FAP-24] | highest specificity |
| AACVSFQNLDCG (also: sidechain bridge or staple (positions not given here)) [FAP-33] | highest specificity |
